Source: patent US5583142A, “Analgesic and nootropic drugs” (priority 1992, dated 1996)
Where “and” joins values, the source holds several entries; their conditions need not be identical. Equal values may be shown once. Read-outs that look alike come from different tables or passages of the source.

Legend:
[1] = mouse rota-rod test (16 r.p.m.)
Source text: All products tested to detect their antinociceptive activity had been previously tested by the rota-rod test to determine their maximum utilizable dose in analgesic tests. In fact, by this test it is possible to determine the highest dose of drug not impairing the normal performance of animals in a test that simultaneously evaluates motor coordination, equilibrium, resistance to fatigue, and muscle strength. This test is meant to evaluate the capability of mice to stay balanced on a rotating rod [cf. Vaught et al., Neuropharmacology, 24 (3) 211-216 (1985)].
The calculated doses were those used in the two analgesic tests on mice.

[2] = assay type: in vivo, mouse; settings: for ANALGESIC ACTIVITY (degree of analgesia, latency on hot plate): max. dose not affecting mice behaviour; for analgesic effect (AUC up to 45 min) compared with reference analgesics: mouse hot plate, FIG. 5, always (s.c. and i.p.); for Efficacy as analgesic (Morphine = 100), AUC (Area Under Curve) / Efficacy as analgesic (Morphine = 100), M.E. (Maximum Analgesic Effect): in vivo
Procedure: (§1) The analgesic action was detected in mouse, rat, guinea pig and dog. The mouse was subjected to hot plate and writhing tests; the rat to tail-flick and paw-pressure tests; the guinea pig to paw-pressure test only; the dog to the test described by Vainio et al. [J. Vet. Pharmacol. Ther., 12, 225-231 (1989)] using an electric stimulation. Consequently, the claimed compounds were tested with pain being induced by stimuli of different nature: thermal (hot plate and tail flick), chemical (writhing by acetic acid), mechanical (paw pressure) and electrical (cutaneous stimulation).
(§2) Potency, efficacy and toxicity of SM21, PG9 and SM32 in comparison with
(§3) four principal reference analgesic drugs tested in mouse. As analgesic

in vivo = settings: mouse, sc
Source text: as §2, §3

[3] = mouse acetic acid writhing test; assay type: in vivo; settings: for efficacy in writhing test, in words / number of writhes / Efficacy as analgesic (Morphine = 100) / percent inhibition: mouse; for number of writhes / Efficacy as analgesic (Morphine = 100) / percent inhibition: 40 mg/kg s.c.; for Efficacy as analgesic (Morphine = 100) / percent inhibition: writhing; for ED50: sc, mouse writhing
Procedure: as §1
The claimed molecules, chosen as examples, were also assayed in mice by the writhing test (Table 4). The test is meant to evaluate the products capability to prevent mice writhes ensuing abdominal pains caused by i.p. injection of a 0.6% aqueous solution of acetic acid.
Acetic acid solution = 0.6% v/v.

rat paw-pressure test = assay type: in vivo; settings: for paw-pressure: 20 mg/kg i.p.
Procedure: as §1
(§4) As already mentioned, the claimed products were assayed also in rat by the paw-pressure and tail-flick tests.
(§5) Both tests were carried out with the max. doses not impairing the rats normal behaviour. […] The painful stimulus utilized in the paw-pressure test involved the animal consciousness to a much greater extent than the stimulus used in the tail-flick test, in fact, the type and anatomic localization of the latter mainly involved a spinal response.
(§6) Both tests on rats were carried out with the max. doses not altering the behaviour of the treated animals.

rat tail-flick test = assay type: in vivo; settings: for tail-flick: 20 mg/kg i.p.
Procedure: as §1, §4, §5, §6
The test was performed using th

[4] = guinea-pig paw-pressure test; assay type: in vivo; settings: for paw-pressure: guinea-pig, 20 mg/kg i.p.
Procedure: as §1
Effect of SM21 and PG9 in guineapig pawpressure test. *P < 0.01; P < 0.0
in comparison with saline controls. The number of guineapig is in […]

[5] = paw-pressure test in rats with a lesion in the nucleus basalis magnocellularis (NBM); assay type: in vivo, rat; settings: 30 mg/kg i.p.
Source text: 3. […] In fact, as known, the magnocellular basal nucleus destruction causes the degeneration of most central cholinergic system.

[6] = 40 mg/kg s.c., 15 min after treatment
[7] = 40 mg/kg s.c., 30 min after treatment
[8] = 40 mg/kg s.c., 45 min after treatment
[9] = 50 mg/kg s.c., 15 min after treatment
[10] = 50 mg/kg s.c., 30 min after treatment
[11] = 50 mg/kg s.c., 45 min after treatment
[12] = mouse, 40 mg/kg i.p., 15 min after treatment
[13] = mouse, 40 mg/kg i.p., 30 min after treatment
[14] = mouse, 40 mg/kg i.p., 45 min after treatment
[15] = mouse, 40 mg/kg s.c., 15 min after treatment
[16] = mouse, 40 mg/kg s.c., 30 min after treatment
[17] = mouse, 40 mg/kg s.c., 45 min after treatment

CC(C(=O)O[C@H]1C[C@H]2CC[C@@H](C1)N2C)c1ccc(Br)cc1 (stereo partly drawn) [PG-9, 3α-Tropanyl 2-(p-bromophenyl)-propionate]
rota-rod performance (number of falls in 30 s) [1, 6]: 1.2 ± 0.5 falls in 30 s
rota-rod performance (number of falls in 30 s) [1, 7]: 0.8 ± 0.4 falls in 30 s
rota-rod performance (number of falls in 30 s) [1, 8]: 1.3 ± 0.5 falls in 30 s
rota-rod performance (number of falls in 30 s) ([1]; 45 mg/kg s.c., 15 min after treatment): 2.4 ± 0.8 falls in 30 s
rota-rod performance (number of falls in 30 s) ([1]; 45 mg/kg s.c., 30 min after treatment): 1.3 ± 0.5 falls in 30 s
rota-rod performance (number of falls in 30 s) ([1]; 45 mg/kg s.c., 45 min after treatment): 0.8 ± 0.4 falls in 30 s
rota-rod performance (number of falls in 30 s) [1, 9]: 2.2 ± 0.6 falls in 30 s
rota-rod performance (number of falls in 30 s) [1, 10]: 2.7 ± 0.6 falls in 30 s
rota-rod performance (number of falls in 30 s) [1, 11]: 2.8 ± 0.4 falls in 30 s
ANALGESIC ACTIVITY (degree of analgesia, latency on hot plate) [2]: ++++ (Latency above 35" ++++-)
analgesic activity in mouse, in words ([2]; mouse): active in mouse
analgesic effect (AUC up to 45 min) compared with reference analgesics [2]: always more active than all reference analgesics including morphine
Efficacy as analgesic (Morphine = 100), AUC (Area Under Curve) ([2]; mouse): 123
Efficacy as analgesic (Morphine = 100), M.E. (Maximum Analgesic Effect) ([2]; mouse): 106
hot-plate latency [2, 12]: 42.5 ± 2.5 s
hot-plate latency [2, 13]: 39.7 ± 2.1 s
hot-plate latency [2, 14]: 26.7 ± 3.5 s
hot-plate latency [2, 15]: 39.3 ± 3.4 s
hot-plate latency [2, 16]: 35.1 ± 2.8 s
hot-plate latency [2, 17]: 33.3 ± 2.6 s
LD50 (in vivo): 373 µmol/kg
efficacy in writhing test, in words [3]: less efficacious than ketorolac, are more efficacious than morphine
number of writhes [3]: 6.1 ± 1.6
Efficacy as analgesic (Morphine = 100) [3]: 110
percent inhibition [3]: 82.2%
ED50 [3]: 16.3 mg/kg and 34.8 µmol/kg
activity in paw-pressure test, in words (rat paw-pressure test): inactive in rat
paw-pressure (rat paw-pressure test; 15 min after treatment): 62.2 ± 6.0 g
paw-pressure (rat paw-pressure test; 30 min after treatment): 62.4 ± 4.8 g
paw-pressure (rat paw-pressure test; 45 min after treatment): 62.8 ± 4.2 g
activity in tail-flick test, in words (rat tail-flick test): inactive
tail-flick (rat tail-flick test; 15 min after treatment): 3.3 ± 0.2 s
tail-flick (rat tail-flick test; 30 min after treatment): 2.9 ± 0.4 s
tail-flick (rat tail-flick test; 45 min after treatment): 3.0 ± 0.3 s
analgesic activity in guinea pig, in words ([4]; guinea pig): active in guinea pig
paw-pressure ([4]; 15 min after treatment): 94.6 ± 4.4 g
paw-pressure ([4]; 30 min after treatment): 83.0 ± 6.8 g
paw-pressure ([4]; 45 min after treatment): 42.8 ± 5.6 g

CCC(Oc1ccc(Cl)cc1)C(=O)O[C@H]1C[C@H]2CC[C@@H](C1)N2C (stereo partly drawn) [SM-21, 3α-Tropanyl 2-(p-chlorophenoxy)-butyrate]
rota-rod performance (number of falls in 30 s) ([1]; 30 mg/kg s.c., 15 min after treatment): 1.9 ± 0.3 falls in 30 s
rota-rod performance (number of falls in 30 s) ([1]; 30 mg/kg s.c., 30 min after treatment): 1.5 ± 0.5 falls in 30 s
rota-rod performance (number of falls in 30 s) ([1]; 30 mg/kg s.c., 45 min after treatment): 1.2 ± 0.5 falls in 30 s
rota-rod performance (number of falls in 30 s) [1, 6]: 1.6 ± 0.6 falls in 30 s
rota-rod performance (number of falls in 30 s) [1, 7]: 1.2 ± 0.4 falls in 30 s
rota-rod performance (number of falls in 30 s) [1, 8]: 1.2 ± 0.4 falls in 30 s
rota-rod performance (number of falls in 30 s) [1, 9]: 2.2 ± 0.4 falls in 30 s
rota-rod performance (number of falls in 30 s) [1, 10]: 2.6 ± 0.5 falls in 30 s
rota-rod performance (number of falls in 30 s) [1, 11]: 2.4 ± 0.5 falls in 30 s
rota-rod performance (number of falls in 30 s) ([1]; 60 mg/kg s.c., 15 min after treatment): 3.5 ± 0.5 falls in 30 s
rota-rod performance (number of falls in 30 s) ([1]; 60 mg/kg s.c., 30 min after treatment): 4.3 ± 0.4 falls in 30 s
rota-rod performance (number of falls in 30 s) ([1]; 60 mg/kg s.c., 45 min after treatment): 4.4 ± 0.6 falls in 30 s
ANALGESIC ACTIVITY (degree of analgesia, latency on hot plate) [2]: ++++ (Latency above 35" ++++-)
analgesic effect (AUC up to 45 min) compared with reference analgesics [2]: always more active than all reference analgesics including morphine
Efficacy as analgesic (Morphine = 100), AUC (Area Under Curve) ([2]; mouse): 111
Efficacy as analgesic (Morphine = 100), M.E. (Maximum Analgesic Effect) ([2]; mouse): 111
hot-plate latency [2, 12]: 36.7 ± 2.1 s
hot-plate latency [2, 13]: 32.0 ± 2.2 s
hot-plate latency [2, 14]: 25.9 ± 2.7 s
hot-plate latency [2, 15]: 38.9 ± 2.9 s
hot-plate latency [2, 16]: 31.3 ± 2.5 s
hot-plate latency [2, 17]: 29.4 ± 3.3 s
LD50 (in vivo): 883 µmol/kg
efficacy in writhing test, in words [3]: slightly inferior to morphine
number of writhes [3]: 11.4 ± 1.6
Efficacy as analgesic (Morphine = 100) [3]: 90
percent inhibition [3]: 67.3%
ED50 [3]: 21.5 mg/kg and 47.4 µmol/kg
activity in paw-pressure test, in words (rat paw-pressure test): almost equivalent analgesia
paw-pressure (rat paw-pressure test; 15 min after treatment): 93.1 ± 4.0 g
paw-pressure (rat paw-pressure test; 30 min after treatment): 93.4 ± 5.4 g
paw-pressure (rat paw-pressure test; 45 min after treatment): 92.3 ± 6.4 g
activity in tail-flick test, in words (rat tail-flick test): active
tail-flick (rat tail-flick test; 15 min after treatment): 3.6 ± 0.2 s
tail-flick (rat tail-flick test; 30 min after treatment): 4.6 ± 0.4 s
tail-flick (rat tail-flick test; 45 min after treatment): 4.9 ± 0.4 s
paw-pressure ([4]; 15 min after treatment): 92.8 ± 4.0 g
paw-pressure ([4]; 30 min after treatment): 110.0 ± 6.6 g
paw-pressure ([4]; 45 min after treatment): 64.0 ± 6.2 g
paw-pressure ([5]; lesioned (NBM) rats, 15 min after treatment): 75.1 ± 5.8 g
paw-pressure ([5]; lesioned (NBM) rats, 30 min after treatment): 68.3 ± 4.9 g
paw-pressure ([5]; lesioned (NBM) rats, 45 min after treatment): 67.2 ± 3.9 g
paw-pressure ([5]; naive rats, 15 min after treatment): 109.6 ± 4.8 g
paw-pressure ([5]; naive rats, 30 min after treatment): 87.5 ± 5.2 g
paw-pressure ([5]; naive rats, 45 min after treatment): 67.8 ± 4.4 g
paw-pressure ([5]; sham rats, 15 min after treatment): 104.9 ± 4.6 g
paw-pressure ([5]; sham rats, 30 min after treatment): 93.4 ± 5.3 g
paw-pressure ([5]; sham rats, 45 min after treatment): 63.9 ± 5.1 g
